Experimental data taken from PMC8161026, “Synthesis and Anticancer Activity Evaluation of 5-[2-Chloro-3-(4-nitrophenyl)-2-propenylidene]-4-thiazolidinones” (Molecules, 2021).

Key:
[1] = tested on: UACC-62; assay: NCI DTP 60 cell line screen, SRB
[2] = tested on: A498; assay: NCI DTP 60 cell line screen, SRB
[3] = tested on: HCT-116; settings: HCT-116 (Colon Cancer), 48 h, SRB
[4] = tested on: SK-MEL-2; assay: cells; settings: Homo sapiens, SK-MEL-2, 48 h
[5] = tested on: HS 578T; assay: NCI DTP 60 cell line screen, SRB; settings: 48 h
[6] = tested on: NCI-H23; assay: cells; settings: Homo sapiens, NCI-H23, 48 h
[7] = tested on: SK-OV-3; assay: NCI DTP 60 cell line screen, SRB
[8] = tested on: Colon Cancer subpanel; assay: cells
Method: (§1) At the first stage of biological activity study, the antitumor activity screening of the selected compounds 2b, 2c, 2f, 2h, and 2j was performed according to the NCI DTP (USA) standard protocol at the concentrations ranging from 10^−4 to 10^−8 M toward 60 tumor cell lines. The percentage of growth was evaluated spectrophotometrically versus controls not treated with test agents after 48 h exposure and using SRB protein assay to estimate cell viability or growth. Dose–response parameters were calculated for each cell line: GI50—molar concentration of the compound that inhibits 50% net cell growth; TGI—molar concentration of the compound leading to the total inhibition; and LC50—molar concentration of the compound leading to 50% net cell death. Furthermore, mean graph midpoints (MG_MID) were calculated for each of the parameters, giving an average activity parameter over all cell lines for the tested compound. For the MG_MID calculation, insensitive cell lines were included with the highest concentration tested.
(§2) The selectivity index (SI) obtained by dividing the full panel MG-MID (mM) of the tested compound by their individual subpanel MG-MID (mM) was considered as a measure of selectivity of anticancer activity (Table 3).
(§3) Primary anticancer assay was performed on a panel of approximately sixty human tumor cell lines derived from nine neoplastic diseases, in accordance with the protocol of the Drug Evaluation Branch, National Cancer Institute, Bethesda. Tested compounds were added to the culture at a single concentration (10^−5 M) and the cultures were incubated for 48 h. End point determinations were made with a protein binding dye, sulforhodamine B (SRB). […] The percentage growth was evaluated spectrophotometrically versus controls not treated with test agents.
(§4) Dose–response parameters (GI50, TGI, LC50) were calculated for each compound. […] The drug concentration resulting in total growth inhibition (TGI) was calculated from Ti = Tz. The LC50 (concentration of drug resulting in a 50% reduction in the measured protein at the end of the drug treatment as compared to that at the beginning) indicating a net loss of cells following treatment was calculated from [(Ti − Tz)/Tz] × 100 = −50 (2). Values were calculated for each of these parameters if the level of activity was reached; however, if the effect was not reached or was excessive, the value for that parameter was expressed as more or less than the maximum or minimum concentration tested.

[9] = tested on: Renal Cancer subpanel; assay: cells
Method: as §1, §2, §3, §4

[10] = tested on: Non-Small Cell Lung Cancer subpanel; assay: cells
Method: as §1, §2, §3, §4

[11] = tested on: Melanoma subpanel; assay: cells
Method: as §1, §2, §3, §4

[12] = tested on: Ovarian Cancer subpanel; assay: cells
Method: as §1, §2, §3, §4

[13] = tested on: Breast Cancer subpanel; assay: cells
Method: as §1, §2, §3, §4

[14] = tested on: Leukemia subpanel; assay: cells
Method: as §1, §2, §3, §4

[15] = tested on: CNS Cancer subpanel; assay: cells
Method: as §1, §2, §3, §4

[16] = tested on: Prostate Cancer subpanel; assay: cells
Method: as §1, §2, §3, §4

[17] = tested on: DU-145; settings: DU-145 (Prostate Cancer), 48 h, SRB
[18] = tested on: K-562; assay: cells; settings: Homo sapiens, K562, 48 h
[19] = Homo sapiens, read-out: MG_MID, GI50
[20] = Homo sapiens, read-out: MG_MID, LC50
[21] = full panel MG_MID / Colon Cancer subpanel MG_MID
[22] = full panel MG_MID / Renal Cancer subpanel MG_MID
[23] = full panel MG_MID / Non-Small Cell Lung Cancer subpanel MG_MID
[24] = full panel MG_MID / Melanoma subpanel MG_MID
[25] = full panel MG_MID / Ovarian Cancer subpanel MG_MID
[26] = full panel MG_MID / Breast Cancer subpanel MG_MID
[27] = full panel MG_MID / Leukemia subpanel MG_MID
[28] = full panel MG_MID / CNS Cancer subpanel MG_MID
[29] = full panel MG_MID / Prostate Cancer subpanel MG_MID

With `O=C1/C(=C/C(Cl)=C/c2ccc([N+](=O)[O-])cc2)SC(=S)N1/N=C\C(Cl)=C\c1ccc([N+](=O)[O-])cc1` [Compound 2c, 5-[(Z,2Z)-2-Chloro-3-(4-nitrophenyl)-2-propenylidene]-3-[(Z,2Z)-2-chloro-3-(4-nitrophenyl)-2-propenylideneamino]-2-thioxo-4-thiazolidinone] the GI50 ([1]; Homo sapiens, UACC-62, 48 h) was 13.6 µM, the CC50 ([1]; Homo sapiens, UACC-62, 48 h, read-out: LC50) was 58 µM and the TGI ([1]; UACC-62 (Melanoma), 48 h, SRB) was 28.1 µM. It also gave a TGI ([2]; A498 (Renal Cancer), 48 h, SRB) of 29.6 µM, a GI50 ([2]; Homo sapiens, A498, 48 h) of 13 µM and a CC50 ([2]; Homo sapiens, A498, 48 h, read-out: LC50) of 67.3 µM. It also gave a TGI [3] of 6.51 µM, a GI50 [4] of 19 µM and a CC50 ([4]; read-out: LC50) of 69.8 µM. For the same compound, the TGI ([5]; HS 578T (Breast Cancer), SRB) was over 100 µM, the GI50 ([5]; Homo sapiens, Hs-578T) was 29.5 µM and the CC50 ([5]; Homo sapiens, Hs-578T, read-out: LC50) was over 100 µM. The GI50 [6] was 16.6 µM, the CC50 ([6]; read-out: LC50) was 60.3 µM and the GI50 ([7]; Homo sapiens, SK-OV-3, 48 h) was 59.6 µM. The CC50 ([7]; Homo sapiens, SK-OV-3, 48 h, read-out: LC50) was over 100 µM, the TGI ([7]; SK-OV-3 (Ovarian Cancer), 48 h, SRB) was over 100 µM and the “MG_MID, TGI” value ([8]; Colon Cancer panel mean) was 59.7 µM. The GI50 [8, 19] was 20.7 µM, the CC50 [8, 20] was 77.8 µM and the “SI (selectivity index), GI50” value [8, 21] was 0.87. For the same compound, the “SI (selectivity index), LC50” value [8, 21] was 1.05, the “SI (selectivity index), TGI” value [8, 21] was 0.72 and the GI50 [9, 19] was 16.9 µM. For the same compound, the CC50 [9, 20] was 80.1 µM, the “MG_MID, TGI” value ([9]; Renal Cancer panel mean) was 43.3 µM and the “SI (selectivity index), GI50” value [9, 22] was 1.07. For the same compound, the “SI (selectivity index), LC50” value [9, 22] was 1.02, the “SI (selectivity index), TGI” value [9, 22] was 1.00 and the GI50 [10, 19] was 25.9 µM. For the same compound, the CC50 [10, 20] was 83 µM, the “MG_MID, TGI” value ([10]; Non-Small Cell Lung Cancer panel mean) was 44.8 µM and the “SI (selectivity index), GI50” value [10, 23] was 0.69. For the same compound, the “SI (selectivity index), LC50” value [10, 23] was 0.98, the “SI (selectivity index), TGI” value [10, 23] was 0.96 and the GI50 [11, 19] was 17.7 µM. For the same compound, the CC50 [11, 20] was 74.3 µM, the “MG_MID, TGI” value ([11]; Melanoma panel mean) was 38.0 µM and the “SI (selectivity index), GI50” value [11, 24] was 1.02. For the same compound, the “SI (selectivity index), LC50” value [11, 24] was 1.10, the “SI (selectivity index), TGI” value [11, 24] was 1.13 and the GI50 [12, 19] was 18.2 µM. For the same compound, the CC50 [12, 20] was 59 µM, the “MG_MID, TGI” value ([12]; Ovarian Cancer panel mean) was 36.2 µM and the “SI (selectivity index), GI50” value [12, 25] was 0.99. The “SI (selectivity index), LC50” value [12, 25] was 1.38, the “SI (selectivity index), TGI” value [12, 25] was 1.19 and the “MG_MID, TGI” value ([13]; Breast Cancer panel mean) was 51.3 µM. The GI50 [13, 19] was 17.5 µM, the CC50 [13, 20] was 90.2 µM and the “SI (selectivity index), GI50” value [13, 26] was 1.03. The “SI (selectivity index), LC50” value [13, 26] was 0.91, the “SI (selectivity index), TGI” value [13, 26] was 0.84 and the GI50 [14, 19] was 3.83 µM. For the same compound, the CC50 [14, 20] was 90 µM, the “MG_MID, TGI” value ([14]; Leukemia panel mean) was 18.6 µM and the “SI (selectivity index), GI50” value [14, 27] was 4.70. The “SI (selectivity index), LC50” value [14, 27] was 0.91, the “SI (selectivity index), TGI” value [14, 27] was 2.32 and the “MG_MID, TGI” value ([15]; CNS Cancer panel mean) was 52.1 µM. The GI50 [15, 19] was 23.4 µM, the CC50 [15, 20] was 88.6 µM and the “SI (selectivity index), GI50” value [15, 28] was 0.77. The “SI (selectivity index), LC50” value [15, 28] was 0.92, the “SI (selectivity index), TGI” value [15, 28] was 0.83 and the GI50 [16, 19] was 14.9 µM. The “SI (selectivity index), GI50” value [16, 29] was 1.21, the “SI (selectivity index), LC50” value [16, 29] was 1.09 and the “SI (selectivity index), TGI” value [16, 29] was 0.95. For the same compound, the TGI [17] was 52.8 µM, the GI50 [18] was 3.98 µM and the CC50 ([18]; read-out: LC50) was over 100 µM.
